Some test systems named below: Hs-578T; EKVX; RXF 393; OVCAR-8; HCC 2998; PC-3; NCI-H23; SK-MEL-2; IGROV-1; SW-620; SK-MEL-5; COLO 205; ACHN; TK-10; MOLT-4; LOX IMVI; HL-60; NCI-H460; HOP-92; M14.
Common to all, as to experiment: inhibition of tumour cell growth, NCI panel, 48 h

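Step 1: Grow cells in 96-well plates. Step 2: Expose to compound for 48 hours at 5 concentrations. Step 3: Interpolate endpoints linearly; if unreached, use highest concentration. The concentration for 50% growth inhibition is given as GI50.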 Activity calls are given as the source filed them. No stated cut-off is given here; in the data, active = GI50 up to about 1.1 µM and inactive = higher. Some results are limits rather than exact numbers.

As for `CS(=O)(=O)OCC1CN(S(C)(=O)=O)c2cc(O)ccc21` (centres undefined), the GI50 with Hs-578T was 3.52 µM (inactive); with EKVX, 4.37 µM (inactive); in the experiment on RXF 393 it was 1.19 µM (inactive); in the experiment with OVCAR-8 it was 2.67 µM (inactive); in the experiment on HCC 2998, 1.89 µM (inactive); with PC-3, 2.09 µM (inactive). Further, the GI50 with NCI-H23 is 1.72 µM (inactive); with SK-MEL-2 it was 2.59 µM (inactive); in the experiment with IGROV-1 it was 3.85 µM (inactive); in the experiment with SW-620, 2.84 µM (inactive); with SK-MEL-5, 1.69 µM (inactive); with COLO 205, 2.3 µM (inactive). In addition, the GI50 in the experiment with ACHN is 3.18 µM (inactive); in the experiment on TK-10 it was 2.37 µM (inactive); in the experiment on MOLT-4, 1.22 µM (inactive); in the experiment with LOX IMVI it was 3.17 µM (inactive); with HL-60 it was 1.87 µM (inactive); in the experiment with NCI-H460, 2.96 µM (inactive). In addition, the GI50 in the experiment on HOP-92 was 3.09 µM (inactive).
For `O=C(NNS(=O)(=O)c1ccccc1)c1cccnc1`, the GI50 in the experiment on Hs-578T, with EKVX, with RXF 393, with OVCAR-8, in the experiment on HCC 2998 and with PC-3 was > 100 µM (inactive) throughout. The GI50 in the experiment with NCI-H23, in the experiment on SK-MEL-2, with IGROV-1, with SW-620, in the experiment on SK-MEL-5 and in the experiment with COLO 205 was > 100 µM (inactive) each time. Also, the GI50 in the experiment with ACHN, with TK-10, in the experiment on MOLT-4, with M14, in the experiment with LOX IMVI and in the experiment on HL-60 was > 100 µM (inactive) each time. Moreover, the GI50 with NCI-H460 and in the experiment with HOP-92 was > 100 µM (inactive) throughout.
On to `O=[N+]([O-])c1cccnc1NCC1(CO)CC(Cc2ccccc2)C1` (centres undefined), for which the GI50 with Hs-578T is > 100 µM (inactive); with EKVX it was 77.6 µM (inactive); in the experiment with RXF 393, > 100 µM (inactive); in the experiment on OVCAR-8, > 100 µM (inactive); in the experiment on HCC 2998, > 100 µM (inactive); in the experiment with PC-3, > 100 µM (inactive). For the same molecule, the GI50 in the experiment with NCI-H23, in the experiment on SK-MEL-2, in the experiment with IGROV-1, with SW-620, with SK-MEL-5 and in the experiment with COLO 205 was > 100 µM (inactive) each time. Further, the GI50 with ACHN, in the experiment with TK-10, with MOLT-4, in the experiment on LOX IMVI, in the experiment with HL-60 and in the experiment on NCI-H460 was > 100 µM (inactive) in each case. Besides, the GI50 with HOP-92 was 11.1 µM (inactive).
`O=C(CC(C(=O)c1cccs1)c1ccc2c(c1)OCO2)c1ccccc1` (centres undefined): the GI50 in the experiment on Hs-578T, in the experiment on RXF 393, in the experiment on OVCAR-8, in the experiment with HCC 2998, in the experiment on PC-3 and with NCI-H23 was > 100 µM (inactive) in each case. The GI50 in the experiment with SK-MEL-2, in the experiment with IGROV-1, in the experiment with SW-620, in the experiment on SK-MEL-5, in the experiment with COLO 205 and in the experiment on ACHN was > 100 µM (inactive) throughout. For the same molecule, the GI50 was 19.6 µM (inactive) with TK-10; 73.8 µM (inactive) in the experiment with M14; > 100 µM (inactive) in the experiment with LOX IMVI; 58.9 µM (inactive) in the experiment with HL-60; 46.7 µM (inactive) in the experiment with NCI-H460; > 100 µM (inactive) in the experiment with HOP-92.
As to `O=C1N=NC(=O)N1c1cc(C(F)(F)F)cc(C(F)(F)F)c1`, the GI50 was 3.93 µM (inactive) with Hs-578T; 3.24 µM (inactive) in the experiment on EKVX; 3.29 µM (inactive) with RXF 393; 3.38 µM (inactive) in the experiment with OVCAR-8; 3.45 µM (inactive) in the experiment on HCC 2998; 2.65 µM (inactive) with PC-3. Moreover, the GI50 with NCI-H23 was 2.35 µM (inactive); in the experiment on SK-MEL-2, 2.2 µM (inactive); in the experiment on IGROV-1 it was 3.83 µM (inactive); in the experiment on SW-620 it was 5.46 µM (inactive); with SK-MEL-5, 2.61 µM (inactive); in the experiment on COLO 205, 1.85 µM (inactive). For the same molecule, the GI50 is 4.04 µM (inactive) with ACHN; 3.68 µM (inactive) in the experiment with TK-10; 3.37 µM (inactive) in the experiment with MOLT-4; 5.7 µM (inactive) in the experiment on M14; 3.27 µM (inactive) in the experiment with LOX IMVI; 3.61 µM (inactive) in the experiment on HL-60. Also, the GI50 was 3.23 µM (inactive) with NCI-H460 and 2.75 µM (inactive) in the experiment with HOP-92.
Turning to `C=C[C@H]1CN2CCc3c([nH]c4c([C@@H]5CCCN5C)c(O)ccc34)[C@@H]2C[C@@H]1C[C@H]1c2[nH]c3ccccc3c2CCN1C`, the GI50 was 1.67 µM (inactive) in the experiment on Hs-578T; 0.274 µM (active) in the experiment on RXF 393; 1.4 µM (inactive) in the experiment on OVCAR-8; 1.72 µM (inactive) in the experiment with HCC 2998; 1.47 µM (inactive) in the experiment with PC-3; 1.82 µM (inactive) in the experiment on NCI-H23. Further, the GI50 in the experiment with SK-MEL-2 was 1.85 µM (inactive); in the experiment with IGROV-1, 1.32 µM (inactive); in the experiment with SW-620, 1.13 µM (inactive); in the experiment with SK-MEL-5, 1.57 µM (inactive); in the experiment on COLO 205, 1.61 µM (inactive); in the experiment with ACHN, 1.65 µM (inactive). For the same molecule, the GI50 is 1.57 µM (inactive) with TK-10; 0.692 µM (active) with MOLT-4; 1.09 µM (active) in the experiment with M14; 1.39 µM (inactive) with LOX IMVI; 0.524 µM (active) in the experiment on HL-60; 1.39 µM (inactive) in the experiment with NCI-H460. In addition, in the experiment with HOP-92, the GI50 was 1.4 µM (inactive).
With `Nc1ncc(/C=N/O)c(NCC2(CO)CC(CCc3ccccc3)C2)n1` (centres undefined), the GI50 was 22.4 µM (inactive) with Hs-578T; 12.1 µM (inactive) in the experiment on RXF 393; 11.1 µM (inactive) in the experiment on OVCAR-8; 15.5 µM (inactive) in the experiment on HCC 2998; 13.9 µM (inactive) in the experiment on PC-3; 16.1 µM (inactive) with SK-MEL-2. Further, the GI50 in the experiment with IGROV-1 was 6.75 µM (inactive); in the experiment with SK-MEL-5, 0.0577 µM (active); in the experiment on COLO 205 it was 10.8 µM (inactive); with TK-10, > 10 µM (inactive); with MOLT-4 it was 3.36 µM (inactive); in the experiment on LOX IMVI it was 2.39 µM (inactive). Moreover, the GI50 is 2.2 µM (inactive) in the experiment on HL-60, 5.74 µM (inactive) in the experiment on NCI-H460 and 12.4 µM (inactive) in the experiment on HOP-92.
With `COc1cc(C)cc(C(=O)/C=C/c2ccccc2)c1O`, the GI50 in the experiment on Hs-578T was 32.8 µM (inactive); with EKVX, 19.4 µM (inactive); in the experiment with RXF 393, 16.3 µM (inactive); in the experiment with OVCAR-8, 19.2 µM (inactive); in the experiment with HCC 2998, 18.8 µM (inactive); in the experiment with PC-3, 19.3 µM (inactive). The GI50 in the experiment with NCI-H23 is 16.9 µM (inactive); in the experiment on SK-MEL-2, 18.5 µM (inactive); in the experiment on IGROV-1, 12.6 µM (inactive); with SW-620 it was 20.2 µM (inactive); in the experiment on SK-MEL-5, 19.8 µM (inactive); in the experiment on COLO 205, 20 µM (inactive). Further, the GI50 in the experiment on ACHN was 18.3 µM (inactive); in the experiment with TK-10, 18.6 µM (inactive); with MOLT-4 it was 30.2 µM (inactive); in the experiment on M14, 16.6 µM (inactive); in the experiment on LOX IMVI it was 17.4 µM (inactive); in the experiment with HL-60, 26.4 µM (inactive). The GI50 in the experiment on NCI-H460 is 20.2 µM (inactive); with HOP-92, 14.9 µM (inactive).
On to `COCC#C[C@@]1(O)CCCCC1CC(OC)OC` (some centres undefined), for which the GI50 was > 100 µM (inactive) with Hs-578T; > 100 µM (inactive) in the experiment with EKVX; > 100 µM (inactive) in the experiment on RXF 393; 51.6 µM (inactive) in the experiment on OVCAR-8; > 100 µM (inactive) with HCC 2998; > 100 µM (inactive) with PC-3. Also, the GI50 was > 100 µM (inactive) with NCI-H23; > 100 µM (inactive) with SK-MEL-2; 48.1 µM (inactive) in the experiment on IGROV-1; > 100 µM (inactive) in the experiment on SK-MEL-5; > 100 µM (inactive) in the experiment on COLO 205; > 100 µM (inactive) in the experiment on ACHN. Besides, the GI50 in the experiment with TK-10 is > 100 µM (inactive); in the experiment on MOLT-4 it was 42.7 µM (inactive); in the experiment with M14, > 100 µM (inactive); in the experiment on LOX IMVI, 48 µM (inactive); with HL-60, 55.1 µM (inactive); in the experiment on NCI-H460, > 100 µM (inactive). For the same molecule, in the experiment on HOP-92, the GI50 is 94.6 µM (inactive).
Regarding `Cc1ccc([N+](=O)[O-])c2c(NCCC[N+](C)(C)[O-])ccnc12`, the GI50 was 48.8 µM (inactive) with Hs-578T; > 100 µM (inactive) in the experiment with EKVX; 34.4 µM (inactive) in the experiment on RXF 393; 58.9 µM (inactive) with OVCAR-8; 23.4 µM (inactive) in the experiment with HCC 2998; 50.8 µM (inactive) in the experiment on PC-3. In addition, the GI50 was 33.4 µM (inactive) with NCI-H23; 52.6 µM (inactive) in the experiment on SK-MEL-2; 20.6 µM (inactive) with IGROV-1; 34.1 µM (inactive) in the experiment on SW-620; 12.2 µM (inactive) in the experiment on SK-MEL-5; 34 µM (inactive) in the experiment on COLO 205. Moreover, the GI50 with ACHN was 61.5 µM (inactive); in the experiment with TK-10, > 100 µM (inactive); in the experiment on MOLT-4, 34.8 µM (inactive); in the experiment with M14 it was 40.3 µM (inactive); with LOX IMVI it was 49.5 µM (inactive); with HL-60, 31.3 µM (inactive). The GI50 was 21.3 µM (inactive) in the experiment with NCI-H460 and 50.9 µM (inactive) with HOP-92.

For the origin of these results see ChEMBL document CHEMBL1201862, “PubChem BioAssay data set” (2004).
